These results are taken from patent US9086425B2, “Carbamylated proteins and risk of cardiovascular disease” (The Cleveland Clinic Foundation, priority 2007, dated 2015).

For one assay, the target named is T1, scavenger receptor SR-A1 (Mus musculus, UniProt P30204).
T1 construct: expressed in transfected cells; host or cells: CHO cells, stably transfected
T1 sequence (P30204 1-458): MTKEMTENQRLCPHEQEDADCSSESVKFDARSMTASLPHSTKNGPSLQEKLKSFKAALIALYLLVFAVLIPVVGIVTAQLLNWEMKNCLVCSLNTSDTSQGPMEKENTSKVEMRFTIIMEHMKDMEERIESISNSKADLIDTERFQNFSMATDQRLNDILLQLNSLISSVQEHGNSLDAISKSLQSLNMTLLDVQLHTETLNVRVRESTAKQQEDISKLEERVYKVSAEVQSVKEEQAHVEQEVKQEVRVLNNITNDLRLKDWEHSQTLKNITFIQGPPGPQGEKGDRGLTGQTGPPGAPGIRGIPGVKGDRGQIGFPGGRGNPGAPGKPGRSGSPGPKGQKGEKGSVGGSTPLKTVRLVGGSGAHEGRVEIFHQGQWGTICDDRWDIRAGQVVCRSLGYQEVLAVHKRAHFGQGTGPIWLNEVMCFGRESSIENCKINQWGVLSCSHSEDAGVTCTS
Nature of the assay: Carbamylated LDL binding studies with SR-A1 transfected cells / SR-A1 inhibitor. The following applies: data not shown. The class given is cell-based, murine.

The test system of assay [1] is aortic smooth muscle cells (both human and bovine). Nature of the assay: Aortic smooth muscle cell proliferation. The class given is cell-based. The following applies: SR-A1 inhibitor present in culture media. The source says: 1,1′-dioctadecyl-3,3,3′,3′-tetramethylyindocarbocyanine perchlorate (DiI) was obtained from Molecular Probes (Eugene, Oreg.). Organic solvents were obtained from Fisher Scientific Co. (Pittsburgh, Pa.). Caspase-3/7 assay kit (Lot #220150) was purchased from Promega (Madison, Wis.) and cell proliferation ELISA, BrdU (colorimetric) kit (Lot #11647229001) was from Roche (Indianapolis, Ind.). All other reagents and materials were obtained from Sigma Chemical Co. (St. Louis, Mo.) unless otherwise indicated. Protein content was determined by the Markwell-modified Lowry protein assay^44. Human LDL and HDL were isolated from whole blood of healthy volunteers by established methods^45. Human myeloperoxidase (MPO) (donor: hydrogen peroxide, oxidoreductase, EC 1.11.1.7), NO2-LDL and AcLDL were prepared as described in Podrez et al^14.
In a separate series of studies, we therefore examined the impact of MPO-catalyzed lipoprotein carbamylation on these processes.

A further assay relates to homocitrulline levels. As to the kind of experiment: Effect of simvastatin on plasma levels of homocitrulline (randomized placebo-controlled study). The following applies: 6 weeks of treatment. The class given is in vivo, human. The protocol:
This study was intended to evaluate the effect of statin therapy on homocitrulline levels. Specimens came from archival materials from a randomized, double-blind, parallel-group, 4-arm, placebo-controlled, multi-center study conducted in 1997. Prior to randomization, subjects underwent a 4-week diet/placebo run-in period. Eligible patients were then randomized to 1 of 4 treatments (ratio 1:1:1:1): placebo, simvastatin 20, 40, or 80 mg, and received 6 weeks of treatment. One hundred and eighty eight out of 195 enrolled men and women completed the study. Subjects were required to have elevated TG (300 to 900 mg/dL), and many had comorbidities associated with the metabolic syndrome; however, though those with morbid obesity, uncontrolled hypertension, or severe hyperlipidemia were excluded. Archived serum and/or plasma that were drawn predose on Day 1 and on Day 42 were used in this analysis.

Turning to fucoidin, the “inhibition of specific binding of carbamylated LDL” value on scavenger receptor SR-A1 is given as “over 80%”. The “effect on proliferation induced by carbamylated LDL” value in assay [1] is given as “markedly suppressed”.
Consider `CCC(C)(C)C(=O)O[C@H]1C[C@@H](C)C=C2C=C[C@H](C)[C@H](CC[C@@H]3C[C@@H](O)CC(=O)O3)[C@H]21` [Simvastatin, simvastatin], for which the “Median % Change (SD) of homocitrulline” value in the assay with homocitrulline levels (simvastatin 20 mg, Day 42 vs predose Day 1, archived serum and/or plasma) is given as −100.0 (102.67) %; in the assay with homocitrulline levels (simvastatin 40 mg, Day 42 vs predose Day 1, archived serum and/or plasma) it was −100.0 (67.77) %; in the assay with homocitrulline levels (simvastatin 80 mg, Day 42 vs predose Day 1, archived serum and/or plasma), −63.44 (89.63) %; with homocitrulline levels (simvastatin combined (20, 40, 80 mg), Day 42 vs predose Day 1) it was −100.0 (84.03) %.
